± gives the expanded uncertainty stated by the source.
Experiment: xn = mol fraction of the nth substance listed
Settings: 101 kPa, Liquid, Vibrating tube method

Question: Which results are given for CCCC(=O)OCC [ethyl butanoate] + CCCCCCC?
Answer: mass density (288.15 K, x1 = 0.0502): 696.39 ± 0.27 kg/m3; mass density (288.15 K, x1 = 0.0918): 703.35 ± 0.27 kg/m3; mass density (288.15 K, x1 = 0.1473): 712.8 ± 0.27 kg/m3; mass density (288.15 K, x1 = 0.2022): 722.42 ± 0.27 kg/m3; mass density (288.15 K, x1 = 0.2465): 730.35 ± 0.27 kg/m3; mass density (288.15 K, x1 = 0.288): 737.84 ± 0.27 kg/m3; mass density (288.15 K, x1 = 0.3987): 758.41 ± 0.27 kg/m3; mass density (288.15 K, x1 = 0.4488): 767.94 ± 0.27 kg/m3; mass density (288.15 K, x1 = 0.5008): 778.03 ± 0.27 kg/m3; mass density (288.15 K, x1 = 0.5456): 786.84 ± 0.27 kg/m3; mass density (288.15 K, x1 = 0.6023): 798.22 ± 0.27 kg/m3; mass density (288.15 K, x1 = 0.6584): 809.63 ± 0.27 kg/m3; mass density (288.15 K, x1 = 0.6999): 818.26 ± 0.27 kg/m3; mass density (288.15 K, x1 = 0.7486): 828.54 ± 0.27 kg/m3; mass density (288.15 K, x1 = 0.8042): 840.42 ± 0.27 kg/m3; mass density (288.15 K, x1 = 0.8481): 850.01 ± 0.27 kg/m3; mass density (288.15 K, x1 = 0.901): 861.58 ± 0.27 kg/m3; mass density (288.15 K, x1 = 0.9347): 869.11 ± 0.27 kg/m3; mass density (288.15 K, x1 = 0.9527): 873.2 ± 0.27 kg/m3; mass density (288.15 K, x1 = 1): 884.01 ± 0.23 kg/m3; mass density (298.15 K, x1 = 0.0522): 688.18 ± 0.27 kg/m3; mass density (298.15 K, x1 = 0.0904): 694.54 ± 0.27 kg/m3; mass density (298.15 K, x1 = 0.1404): 703.05 ± 0.27 kg/m3; mass density (298.15 K, x1 = 0.1901): 711.58 ± 0.27 kg/m3; mass density (298.15 K, x1 = 0.2539): 722.68 ± 0.27 kg/m3; mass density (298.15 K, x1 = 0.2962): 730.22 ± 0.27 kg/m3; mass density (298.15 K, x1 = 0.3543): 740.87 ± 0.27 kg/m3; mass density (298.15 K, x1 = 0.4): 749.31 ± 0.27 kg/m3; mass density (298.15 K, x1 = 0.443): 757.44 ± 0.27 kg/m3; mass density (298.15 K, x1 = 0.5517): 778.51 ± 0.27 kg/m3; mass density (298.15 K, x1 = 0.6018): 788.45 ± 0.27 kg/m3; mass density (298.15 K, x1 = 0.648): 797.84 ± 0.27 kg/m3; mass density (298.15 K, x1 = 0.6976): 808.02 ± 0.27 kg/m3; mass density (298.15 K, x1 = 0.7463): 818.17 ± 0.27 kg/m3; mass density (298.15 K, x1 = 0.7884): 827.06 ± 0.27 kg/m3; mass density (298.15 K, x1 = 0.8473): 839.64 ± 0.27 kg/m3; mass density (298.15 K, x1 = 0.9054): 852.26 ± 0.27 kg/m3; mass density (298.15 K, x1 = 0.9524): 862.74 ± 0.27 kg/m3; mass density (298.15 K, x1 = 1): 873.5 ± 0.24 kg/m3; mass density (308.15 K, x1 = 0.0461): 678.42 ± 0.27 kg/m3; mass density (308.15 K, x1 = 0.0952): 686.44 ± 0.27 kg/m3; mass density (308.15 K, x1 = 0.1445): 694.69 ± 0.27 kg/m3; mass density (308.15 K, x1 = 0.2034): 704.7 ± 0.27 kg/m3; mass density (308.15 K, x1 = 0.2497): 712.78 ± 0.27 kg/m3; mass density (308.15 K, x1 = 0.3081): 723.17 ± 0.27 kg/m3; mass density (308.15 K, x1 = 0.3441): 729.57 ± 0.27 kg/m3; mass density (308.15 K, x1 = 0.406): 741.01 ± 0.27 kg/m3; mass density (308.15 K, x1 = 0.4563): 750.35 ± 0.27 kg/m3; mass density (308.15 K, x1 = 0.5053): 759.76 ± 0.27 kg/m3; mass density (308.15 K, x1 = 0.5505): 768.46 ± 0.27 kg/m3; mass density (308.15 K, x1 = 0.6038): 778.99 ± 0.27 kg/m3; mass density (308.15 K, x1 = 0.6498): 788.17 ± 0.27 kg/m3; mass density (308.15 K, x1 = 0.7026): 798.87 ± 0.27 kg/m3; mass density (308.15 K, x1 = 0.7544): 809.6 ± 0.27 kg/m3; mass density (308.15 K, x1 = 0.788): 816.69 ± 0.27 kg/m3; mass density (308.15 K, x1 = 0.8424): 828.13 ± 0.27 kg/m3; mass density (308.15 K, x1 = 0.9009): 840.82 ± 0.27 kg/m3; mass density (308.15 K, x1 = 0.9512): 851.86 ± 0.27 kg/m3; mass density (308.15 K, x1 = 1): 862.85 ± 0.24 kg/m3; mass density (318.15 K, x1 = 0.0532): 670.78 ± 0.27 kg/m3; mass density (318.15 K, x1 = 0.095): 677.56 ± 0.27 kg/m3; mass density (318.15 K, x1 = 0.1397): 684.91 ± 0.27 kg/m3; mass density (318.15 K, x1 = 0.2087): 696.59 ± 0.27 kg/m3; mass density (318.15 K, x1 = 0.2565): 704.87 ± 0.27 kg/m3; mass density (318.15 K, x1 = 0.3048): 713.3 ± 0.27 kg/m3; mass density (318.15 K, x1 = 0.3608): 723.3 ± 0.27 kg/m3; mass density (318.15 K, x1 = 0.4046): 731.26 ± 0.27 kg/m3; mass density (318.15 K, x1 = 0.4532): 740.3 ± 0.27 kg/m3; mass density (318.15 K, x1 = 0.5065): 750.34 ± 0.27 kg/m3; mass density (318.15 K, x1 = 0.5517): 759.04 ± 0.27 kg/m3; mass density (318.15 K, x1 = 0.6007): 768.46 ± 0.27 kg/m3; mass density (318.15 K, x1 = 0.6492): 778.12 ± 0.27 kg/m3; mass density (318.15 K, x1 = 0.6934): 787.02 ± 0.27 kg/m3; mass density (318.15 K, x1 = 0.739): 796.28 ± 0.27 kg/m3; mass density (318.15 K, x1 = 0.7947): 807.72 ± 0.27 kg/m3; mass density (318.15 K, x1 = 0.8554): 820.65 ± 0.27 kg/m3; mass density (318.15 K, x1 = 0.8861): 827.23 ± 0.27 kg/m3; mass density (318.15 K, x1 = 0.9515): 841.48 ± 0.27 kg/m3; mass density (318.15 K, x1 = 1): 852.26 ± 0.24 kg/m3; mass density (328.15 K, x1 = 0.0535): 662.06 ± 0.27 kg/m3; mass density (328.15 K, x1 = 0.0975): 669.12 ± 0.27 kg/m3; mass density (328.15 K, x1 = 0.1485): 677.41 ± 0.27 kg/m3; mass density (328.15 K, x1 = 0.1785): 682.4 ± 0.27 kg/m3; mass density (328.15 K, x1 = 0.2367): 692.21 ± 0.27 kg/m3; mass density (328.15 K, x1 = 0.3034): 703.69 ± 0.27 kg/m3; mass density (328.15 K, x1 = 0.359): 713.56 ± 0.27 kg/m3; mass density (328.15 K, x1 = 0.4538): 730.76 ± 0.27 kg/m3; mass density (328.15 K, x1 = 0.5087): 741 ± 0.27 kg/m3; mass density (328.15 K, x1 = 0.5511): 749.04 ± 0.27 kg/m3; mass density (328.15 K, x1 = 0.6093): 760.27 ± 0.27 kg/m3; mass density (328.15 K, x1 = 0.6471): 767.65 ± 0.27 kg/m3; mass density (328.15 K, x1 = 0.6967): 777.52 ± 0.27 kg/m3; mass density (328.15 K, x1 = 0.739): 786.07 ± 0.27 kg/m3; mass density (328.15 K, x1 = 0.7999): 798.54 ± 0.27 kg/m3; mass density (328.15 K, x1 = 0.8397): 806.83 ± 0.27 kg/m3; mass density (328.15 K, x1 = 0.9086): 821.54 ± 0.27 kg/m3; mass density (328.15 K, x1 = 0.9533): 831.27 ± 0.27 kg/m3; mass density (328.15 K, x1 = 1): 841.55 ± 0.24 kg/m3

From the NIST ThermoML archive (doi:10.1021/je300799f)
